Key:
[1] = target: T1, Transient receptor potential cation channel subfamily M member 5 (Mus musculus) (UniProt Q9JJH7); assay: Activation of TRPM5 in mouse GLUTag cells assessed as induction of 0.3 mM glucose-mediated GLP-1 secretion after 2 hrs by ELISA; format: cell-based
T1 sequence (whole entry): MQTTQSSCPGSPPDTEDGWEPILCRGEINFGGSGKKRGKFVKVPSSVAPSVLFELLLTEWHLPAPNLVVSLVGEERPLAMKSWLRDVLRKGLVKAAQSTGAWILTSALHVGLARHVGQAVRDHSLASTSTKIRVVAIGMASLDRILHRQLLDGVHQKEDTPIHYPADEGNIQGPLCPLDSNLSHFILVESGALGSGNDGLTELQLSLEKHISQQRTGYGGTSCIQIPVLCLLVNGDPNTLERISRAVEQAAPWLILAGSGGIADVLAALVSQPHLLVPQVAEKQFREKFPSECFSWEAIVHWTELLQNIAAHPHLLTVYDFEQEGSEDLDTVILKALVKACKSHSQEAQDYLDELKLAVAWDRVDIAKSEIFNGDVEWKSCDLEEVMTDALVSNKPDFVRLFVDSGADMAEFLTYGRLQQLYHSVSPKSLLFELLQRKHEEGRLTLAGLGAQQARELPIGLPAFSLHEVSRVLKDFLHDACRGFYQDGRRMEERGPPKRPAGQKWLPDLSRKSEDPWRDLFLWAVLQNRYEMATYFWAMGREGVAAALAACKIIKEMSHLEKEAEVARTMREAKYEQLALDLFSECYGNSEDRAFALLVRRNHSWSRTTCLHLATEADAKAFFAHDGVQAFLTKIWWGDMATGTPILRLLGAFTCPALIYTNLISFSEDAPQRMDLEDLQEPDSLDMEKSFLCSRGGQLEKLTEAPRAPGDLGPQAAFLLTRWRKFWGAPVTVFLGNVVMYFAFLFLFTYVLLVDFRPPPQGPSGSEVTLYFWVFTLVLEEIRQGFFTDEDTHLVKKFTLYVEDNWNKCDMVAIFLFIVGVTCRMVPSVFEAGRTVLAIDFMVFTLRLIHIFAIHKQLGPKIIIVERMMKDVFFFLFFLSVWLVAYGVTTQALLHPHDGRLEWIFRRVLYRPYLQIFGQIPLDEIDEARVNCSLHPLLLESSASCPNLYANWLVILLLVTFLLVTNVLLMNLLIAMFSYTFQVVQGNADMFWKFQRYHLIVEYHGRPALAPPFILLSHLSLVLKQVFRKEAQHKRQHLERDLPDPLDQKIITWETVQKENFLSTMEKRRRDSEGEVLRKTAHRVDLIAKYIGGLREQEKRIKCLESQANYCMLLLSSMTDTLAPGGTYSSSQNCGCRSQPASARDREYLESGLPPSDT

[2] = target: Transient receptor potential cation channel, subfamily M, member 5 (Rattus norvegicus) (UniProt A0A8I6AG64); assay: Activation of TRPM5 in Sprague-Dawley rat primary islets assessed as induction of 12 mM glucose-mediated insulin secretion after 3 hrs by ELISA
[3] = target: T1, Transient receptor potential cation channel subfamily M member 5 (Mus musculus); assay: Activation of TRPM5 in SV40 expressing transgenic mouse Beta-TC-6 cells assessed as induction of 1 mM glucose-mediated insulin secretion after 2 hrs by ELISA

Measured: Activity

Chain of Transient receptor potential cation channel, subfamily M, member 5 (Rattus norvegicus) (A0A8I6AG64 as listed by the source): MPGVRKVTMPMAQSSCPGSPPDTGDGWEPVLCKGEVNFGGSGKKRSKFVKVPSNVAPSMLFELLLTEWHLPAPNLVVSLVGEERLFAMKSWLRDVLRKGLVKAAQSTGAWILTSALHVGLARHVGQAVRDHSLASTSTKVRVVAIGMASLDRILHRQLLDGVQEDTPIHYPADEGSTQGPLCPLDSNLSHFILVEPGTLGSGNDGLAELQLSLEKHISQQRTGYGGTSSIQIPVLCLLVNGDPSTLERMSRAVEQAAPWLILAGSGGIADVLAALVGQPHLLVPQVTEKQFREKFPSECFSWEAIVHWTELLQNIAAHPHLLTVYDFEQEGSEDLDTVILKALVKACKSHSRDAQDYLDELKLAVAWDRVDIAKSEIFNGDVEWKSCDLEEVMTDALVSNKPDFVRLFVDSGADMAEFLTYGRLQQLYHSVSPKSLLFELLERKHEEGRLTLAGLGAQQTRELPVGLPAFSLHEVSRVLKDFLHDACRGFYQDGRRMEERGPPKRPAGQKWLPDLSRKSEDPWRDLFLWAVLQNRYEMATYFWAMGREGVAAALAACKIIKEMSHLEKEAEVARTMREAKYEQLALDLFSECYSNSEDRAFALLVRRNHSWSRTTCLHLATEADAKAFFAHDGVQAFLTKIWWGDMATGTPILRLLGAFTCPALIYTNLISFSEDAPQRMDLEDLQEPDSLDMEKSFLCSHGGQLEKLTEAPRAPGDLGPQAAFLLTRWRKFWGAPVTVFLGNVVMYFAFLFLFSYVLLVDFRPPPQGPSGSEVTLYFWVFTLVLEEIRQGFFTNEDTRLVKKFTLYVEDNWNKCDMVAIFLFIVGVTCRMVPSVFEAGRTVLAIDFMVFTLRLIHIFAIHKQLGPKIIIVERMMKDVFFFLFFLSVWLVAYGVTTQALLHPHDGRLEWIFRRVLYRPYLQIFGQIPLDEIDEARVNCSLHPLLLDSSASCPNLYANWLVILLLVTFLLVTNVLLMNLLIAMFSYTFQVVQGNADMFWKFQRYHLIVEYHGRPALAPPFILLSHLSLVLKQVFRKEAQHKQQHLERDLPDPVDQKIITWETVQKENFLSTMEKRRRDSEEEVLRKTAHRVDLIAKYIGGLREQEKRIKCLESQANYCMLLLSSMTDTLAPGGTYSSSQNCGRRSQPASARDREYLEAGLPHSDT

Cc1cc(/C=N/NC(=O)[C@@H]2C[C@H]2c2ccccc2)cc2cccnc12 (relative stereo)
active: [1] Dose-dependent effect | [2] Dose-dependent effect | [3] Dose-dependent effect

From ChEMBL document CHEMBL3879891, “Hydrazone compounds and their use” (2011)
